Counter-ions that a name gives are not always drawn.

Assay [1] deals with T1, PanK3 (Homo sapiens, UniProt Q9H999). Nature of the assay: PanK3 high-throughput screen, two-step luminescence. Format: biochemical.
Assay [2] has as its target T1, PanK3. Briefly: PanK3 radiochemical. Format: biochemical. The conditions noted are these: for PanK3 inhibition by steroids: radiochemical assay, 100 µM compound; for Km: read-out: KM for PanK3, wild-type PanK3, substrate; for % Activation RA: % of maximal activation of PanK3 with respect to the DMSO control; for % Activation RA / PanK3 inhibition (in words): radioactive assay; for EC50 (µM), RA: radiochemical PanK3 assay; for PanK3 inhibition (in words): increasing concentrations of compound.

Assay [3] addresses T2, PanK3(S195V) (Homo sapiens, UniProt Q9H999, S195V).
T2 sequence (Q9H999 1-370 S195V): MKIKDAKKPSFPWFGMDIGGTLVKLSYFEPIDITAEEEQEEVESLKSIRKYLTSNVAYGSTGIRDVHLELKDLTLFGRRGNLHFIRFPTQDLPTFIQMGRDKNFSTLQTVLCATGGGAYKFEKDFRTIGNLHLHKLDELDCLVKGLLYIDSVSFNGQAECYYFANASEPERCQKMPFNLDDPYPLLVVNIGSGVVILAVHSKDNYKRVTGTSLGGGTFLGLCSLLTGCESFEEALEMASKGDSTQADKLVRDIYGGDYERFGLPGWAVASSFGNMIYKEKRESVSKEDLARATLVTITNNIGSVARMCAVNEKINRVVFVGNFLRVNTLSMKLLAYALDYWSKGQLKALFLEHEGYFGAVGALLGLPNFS
Briefly: PanK3. The assay is classed as biochemical. To be noted: for Km: read-out: KM for PanK3(S195V), substrate.

In assay [4] the test system is HepG2/C3A cells. Nature of the assay: CoA biosynthesis, [3H]pantothenate incorporation into CoA in HepG2/C3A cells. The assay is classed as cell-based, human. To be noted: 24 h labeling, relative to DMSO control.
Where [5] appears, read: HTS platform, 10-point concentration series in triplicate, rounded to nearest 0.1 µM.

T1 sequence (Q9H999 whole entry): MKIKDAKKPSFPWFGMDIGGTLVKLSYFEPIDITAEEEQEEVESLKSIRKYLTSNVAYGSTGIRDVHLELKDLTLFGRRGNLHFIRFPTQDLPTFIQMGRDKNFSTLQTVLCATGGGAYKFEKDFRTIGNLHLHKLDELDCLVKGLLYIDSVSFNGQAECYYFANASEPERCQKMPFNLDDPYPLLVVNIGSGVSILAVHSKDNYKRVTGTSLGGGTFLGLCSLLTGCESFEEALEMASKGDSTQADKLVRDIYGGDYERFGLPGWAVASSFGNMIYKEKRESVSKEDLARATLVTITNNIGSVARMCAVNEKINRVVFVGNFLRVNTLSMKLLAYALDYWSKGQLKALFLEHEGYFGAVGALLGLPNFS

For orientation: IC50 means the concentration that inhibits the measured activity by half. The low end stands for inhibition by little substance, the high end for a need for much substance. Take `CN[C@@H](C)[C@H](O)c1ccccc1` [Ephedrine hydrochloride]: the IC50 in assay [1] is 1.6 µM.
For the molecule `C[C@]12CC[C@H](OS(=O)(=O)O)CC1=CC[C@@H]1[C@@H]2CC[C@]2(C)C(=O)CC[C@@H]12` [Dehydroisoandrosterone sulfate], the “PanK3 inhibition by steroids” value in assay [2] is listed as “inhibited the enzyme more potently than their non-sulfated versions”.
In assay [1], `CC1(C)[C@@H](O)CC[C@]2(C)[C@H]3C(=O)C=C4[C@H]5C[C@@](C)(C(=O)O)CC[C@]5(C)CC[C@@]4(C)[C@]3(C)CC[C@@H]12` [18α-glycyrrhetinic acid] had an IC50 of 3.6 µM.
For orientation: Km means the concentration of substrate that gives half-maximal velocity. With `CC(C)(CO)[C@@H](O)C(=O)NCCC(=O)NCCS` [pantetheine], the figures for the Km in assay [3] and in assay [2] were 59 ± 3 µM and 23 ± 2 µM, respectively.
Take `O=C1C=CC(=O)c2ccccc21` [1,4-naphtoquinone]: in assay [2], the “% Activation RA” value is reported as 0% and the “EC50 (µM), RA” value is on record as “Inactive”.
As to `CC(=O)SCCNC(=O)CCNC(=O)[C@H](O)C(C)(C)COP(=O)(O)OP(=O)(O)OC[C@H]1O[C@@H](n2cnc3c(N)ncnc32)[C@H](O)[C@@H]1OP(=O)(O)O` [acetyl-CoA], in assay [3] (radioactive assay, 800 ng PanK3(S195V)), the “Inhibition of PanK3(S195V)” value is given as “refractory to inhibition”.
With `C[C@]12CC[C@@H]3c4ccc(OS(=O)(=O)O)cc4CC[C@H]3[C@@H]1CC[C@@H]2O` [estradiol sulfate], the “PanK3 inhibition by steroids” value in assay [2] is given as “no effect”.
As for `C[C@]12CC[C@@H]3c4ccc(OS(=O)(=O)O)cc4CC[C@H]3[C@@H]1CCC2=O` [estrone sulfate], the “PanK3 inhibition by steroids” value in assay [2] was “inhibited the enzyme more potently than their non-sulfated versions”.
On to `Oc1c(Cl)cc(Cl)c(Cl)c1Cc1c(O)c(Cl)cc(Cl)c1Cl` [Hexachlorophene], for which, in assay [1], the IC50 was determined as 8.8 µM.
In the case of `CC(=O)[C@H]1CC[C@H]2[C@@H]3CC=C4C[C@@H](O)CC[C@]4(C)[C@H]3CC[C@]12C` [Pregnenolone], the “PanK3 inhibition by steroids” value in assay [2] is “weak PanK3 inhibitors”.
Consider `C#C[C@]1(O)CC[C@H]2[C@@H]3CCC4=Cc5nc6nc7ccccc7n6cc5C[C@]4(C)[C@H]3CC[C@@]21C` [WIN 62577], for which the IC50 in assay [1] (setting [5]) is 0.7 µM.
Molecule `CCc1ccc(CCOc2ccc(CC3SC(=O)NC3=O)cc2)nc1` (stereo not drawn) [Pioglitazone hydrochloride] gave an IC50 in assay [1] of 1 µM.
The term EC50 denotes the midpoint of the concentration-response curve. Read a low EC50 as higher potency in that assay. As to `CCCCCCCC/C=C\CCCCCCCC(=O)NCCO` [Oleoylethanolamide], in assay [2], the EC50 came out at 0.5 µM and the “% Activation RA” value was found to be 120%. This molecule also yielded an EC50 in assay [1] of 7.9 µM.
As for `N#C/C(=C\c1ccc(O)c(O)c1)C(=O)N1CCc2ccccc21` [Tyrphostin AG 528], the IC50 in assay [1] (setting [5]) was determined as 3 µM.
As to Phenylmercuric acid, in assay [2], the “% Activation RA” value came to 0% and the “EC50 (µM), RA” value was “Inactive”.
Consider `Nc1ncnc2c1ncn2[C@@H]1O[C@H](COP(=O)(O)OP(=O)(O)O)[C@@H](O)[C@H]1O` [ADP], for which the “Kinetic mechanism of PanK3 inhibition with respect to ATP” value in assay [2] is given as “competitive inhibitor”.
Turning to `CN(CCOc1ccc(CC2SC(=O)NC2=O)cc1)c1ccccn1` (stereo not drawn) [Rosiglitazone], in assay [4], the “Effect on CoA biosynthesis (pantothenate incorporation into CoA)” value is listed as “inhibited pantothenate incorporation into CoA”.
In the case of `N=C(N)SCCc1ccc(CCSC(=N)N)cc1` [1,4-PBIT dihydrobromide], in assay [1] (setting [5]), 0.4 µM corresponded to half-maximal inhibition (IC50).
On to `Cc1cc(SCc2sc(-c3ccc(C(F)(F)F)cc3)nc2C)ccc1OCC(=O)O` [GW501516], for which the IC50 in assay [2] is roughly 100 µM.
Take `CN(CCOc1ccc(C[C@H](Nc2ccccc2C(=O)c2ccccc2)C(=O)O)cc1)c1ccccn1` [GW1929]: the “PanK3 inhibition (in words)” value in assay [2] is on record as “either had no effect or very weak activity”.
In assay [1] (setting [5]), Tyrphostin AG 808 registered an IC50 of 9 µM.
In the case of `NS(=O)(=O)c1cc(C(=O)O)c(NCc2ccco2)cc1Cl` [furosemide], the “Activator hit in primary HTS” value in assay [1] (screened at 12 µM, cut-off >25% activation) is listed as “did not make the cutoff for an activator of PanK3”.
In the case of `CC(=O)O[C@H]1C[C@@]2(C)[C@@H](C[C@@H](O)[C@H]3[C@@]4(C)CC[C@@H](O)[C@@H](C)[C@@H]4CC[C@@]32C)/C1=C(\CCC=C(C)C)C(=O)O` [Fusidic acid], the IC50 in assay [1] was determined as 0.1 µM.
`CC(C)[C@H]1CC[C@H](C(=O)N[C@H](Cc2ccccc2)C(=O)O)CC1` [nateglinide]: the IC50 in assay [2] was greater than 100 µM.
`Cc1c(Cl)cccc1Nc1ccccc1C(=O)O` [Tolfenamic acid] had an IC50 in assay [1] of 9.2 µM.
As to `Cc1cnc(C(=O)NCCc2ccc(S(=O)(=O)NC(=O)NC3CCCCC3)cc2)cn1` [Glipizide], the IC50 stood at 8.5 µM in assay [2] and 5.2 µM in assay [1].
In assay [2], `CCOc1cc(CC(=O)N[C@@H](CC(C)C)c2ccccc2N2CCCCC2)ccc1C(=O)O` [repaglinade] showed an IC50 greater than 100 µM.
On to `Nc1ncnc2c1ncn2[C@@H]1O[C@H](COP(=O)(O)OP(=O)(O)OP(=O)(O)O)[C@@H](O)[C@H]1O` [ATP], for which the results for the Km in assay [3] and in assay [2] were 191 ± 27 µM and 311 ± 53 µM, respectively.
`O=C(c1cc(O)c(O)c([N+](=O)[O-])c1)c1ccccc1F` [Ro 41-0960] registered an IC50 in assay [1] (setting [5]) of 3.9 µM.
`O=C(Nc1ccccc1)c1cc([N+](=O)[O-])ccc1Cl` [GW9662]: the “PanK3 inhibition (in words)” value in assay [2] is listed as “either had no effect or very weak activity”.
With `C[C@]12CC[C@H](O)CC1=CC[C@@H]1[C@@H]2CC[C@]2(C)C(=O)CC[C@@H]12` [Dehydroisoandrosterone], the “PanK3 inhibition by steroids” value in assay [2] is “decreased the enzyme activity”.
Regarding Psi-Rhodomyrtoxin, the IC50 in assay [1] (setting [5]) worked out at 1.6 µM.
In the case of `O=C1C(Cl)=C(Cl)C(=O)C(Cl)=C1Cl` [Chloranil], the IC50 in assay [1] was 5.9 µM.
For `CCCCCCCCCCCCCCCC(=O)OC(CC(=O)[O-])C[N+](C)(C)C` (stereo not drawn) [Palmitoyl-carnitine], in assay [2], it took 1.6 µM to reach a half-maximal effect (EC50) and the “% Activation RA” value was found to be 120%.
`CC(C)CCC[C@@H](C)[C@H]1CC[C@H]2[C@@H]3CC=C4C[C@@H](O)CC[C@]4(C)[C@H]3CC[C@]12C` [cholesterol]: the “PanK3 inhibition by steroids” value in assay [2] is “weak PanK3 inhibitors”.
As for `CCCCCCCC/C=C\CCCCCCCC(=O)O[C@H](CC(=O)[O-])C[N+](C)(C)C` [Oleoyl-carnitine], the “Effect on CoA biosynthesis (pantothenate incorporation into CoA)” value in assay [4] is “activators of CoA biosynthesis”. Also, in assay [2], the “% Activation RA” value was 140%. Besides, the “Reversal of / competition with acetyl-CoA inhibition of PanK3” value in assay [2] (in the presence of acetyl-CoA, data not shown) was “Competition between acetyl-CoA and oleoyl-carnitine was also observed”.
`CCCCNC(=O)NS(=O)(=O)c1ccc(C)cc1` [Tolbutamide]: the “PanK3 inhibition (in words)” value in assay [2] was “ineffective”.
As for `O=C1Nc2ccc(I)cc2/C1=C/c1cc(Br)c(O)c(Br)c1` [GW5074], in assay [1] (setting [5]), it took 9.2 µM to reach half-maximal inhibition (IC50).

These data come from paper PMC2929395 (Chemistry & biology, 2010).
